Experimental findings from US20230331675A1, “AROMATIC ETHYLENE COMPOUND AND PREPARATION METHOD THEREFOR, AND INTERMEDIATE, PHARMACEUTICAL COMPOSITION, AND APPLICATION THEREOF” (GUANGZHOU MAXINOVEL PHARMACEUTICALS CO., LTD., priority 2020, published 2023) are described below.

The term AUC(0-inf) denotes the area under the concentration-time curve extrapolated to infinity. Higher therefore signals high exposure. A word on the Cmax: it is the highest concentration seen after dosing.

Each structure is given as a SMILES string.

Data set [1] is described as follows: Pharmacokinetic experiment in mice. The format is in vivo. Conditions: CD1 male mice, intravenous 2 mg/kg; for F: oral 10 mg/kg by gavage; for AUC(0-inf) / Cmax: mouse, plasma, oral 10 mg/kg by gavage (route of value not stated). The source says:
Effect embodiment 2: Pharmacokinetic experiment in mice
Reagents: Acetonitrile, formic acid, methanol (HPLC grade) were purchased from Sigma-Aldrich (USA.), and pure water was purchased from Hangzhou Wahaha Group Co., Ltd. (Hangzhou, China). Other chemical reagents were all analytically pure reagents.
Experimental instruments: liquid chromatograph mass spectrometer (UPLC-MS/MS, composed of AB SCIEX TRIPLE QUAD 6500 triple quadrupole mass spectrometer, Shimadzu high performance liquid phase system. The Analyst 1.6.2 data acquisition and processing system was adopted).
Experimental animals: 6 CD1 male mice, 29-30 g before administration, were purchased from Shanghai Jihui Experimental Animal Breeding Co., Ltd., and the animal certificate number is SCXK(SH) 2017-0012 20170012001403. Before the experiment, the animals should be kept for at least 3 days to adapt to the environment. Throughout the experiment, the animals had free access to food and water.
1) Preparation of a mother liquor: A certain amount of the test drug was weighed in a clean sample bottle, then dimethyl sulfoxide was added, vortexed thoroughly for 1 min, and sonicated for 5 min to give a 4 mg/mL solution.
Drug preparation for intravenous administration: A certain amount of the above solution was taken and placed in a clean sample bottle, then polyethylene glycol-15 hydroxystearate was added, vortexed thoroughly for 1 min, then normal saline was added, and the mixture was continued vortexing for 1 min to give […] solution A.
Drug preparation for oral administration: A certain amount of the test drug was weighed and placed in a clean sample bottle, then a pre-prepared vehicle “10% (w/v) polyoxyethylene 40 hydrogenated castor+20% (w/v) sulfobutyl ether β-cyclodextrin+70% water” was added, vortexed thoroughly for 1 min, magnetically stirred for 20-25 min, and sonicated for 10 min to give 1 mg/mL solution B.
2) Intravenous administration: 3 mice were injected with 2 mg/kg (5 mL/kg) solution A through the tail vein.
Oral administration: 3 mice were given 10 mg/kg (10 mL/kg) solution B by gavage.
3) Collection and storage of plasma samples: Blood samples were collected from the orbital venous plexus of mice according to predetermined time points (5 minutes, 15 minutes, 30 minutes, 1 hour, 2 hours, 4 hours, 8 hours and 24 hours). 25 μL of blood was placed in EDTA-K2 anticoagulant tubes (placed on wet ice), and 20 μL of blood was immediately diluted with 60 μL of water and vortexed until evenly mixed. Plasma was stored in a −70° C. refrigerator for long-term storage until sample analysis.
4) Analysis of plasma samples: 200 μL of acetonitrile (containing 100 ng/mL internal standard) was added to 25 μL of plasma sample, vortexed for 10 minutes, and centrifuged at 5800 rpm for 10 minutes. 70 μL of supernatant was transferred to a 96-well injection plate. 1 μL of plasma sample was analyzed by LC-MS/MS.
5) The pharmacokinetic parameters were calculated according to the test results.

Another data set addresses PD-1/PD-L1 (Homo sapiens (Human), UniProt Q9NZQ7). The data set can be described thus: Homogeneous time-resolved fluorescence (HTRF) binding assay. Conditions: CisBio kit, read-out: IC50 of compounds binding to PD-1/PD-L1. The method, boiled down:
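Compound at 10 concentrations (3-fold steps) preincubated with PD-L1 and PD-1 at room temperature for 30 minutes. Anti-tag1-Eu and anti-tag2-XL665 then added, with 1 to 24 hours further incubation at room temperature before HTRF readout of binding.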
(TR-FRET usually uses a lanthanide donor and a delayed reading to cut background.)

PD-1/PD-L1, sequence (Q9NZQ7 19-238): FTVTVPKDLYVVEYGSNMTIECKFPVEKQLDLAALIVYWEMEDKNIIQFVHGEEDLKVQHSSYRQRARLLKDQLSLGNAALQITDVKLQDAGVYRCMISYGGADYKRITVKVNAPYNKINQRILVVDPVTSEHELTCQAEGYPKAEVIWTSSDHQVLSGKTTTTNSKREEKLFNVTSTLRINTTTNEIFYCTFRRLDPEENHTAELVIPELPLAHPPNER

In data set [1], `COc1cc(/C=C/c2nccc(-c3ccccc3)c2C#N)c(C(F)(F)F)cc1CN1CCCC[C@H]1C(=O)O` [reference compound] yielded an F of 16.4%, an AUC(0-inf) of 1000 ng·h/mL and a Cmax of 254 ng/mL.

In data set [1], `COc1cc(/C=C/c2cccc(-c3ccccc3)c2C)c(C(F)(F)F)cc1CN1CCCC[C@H]1C(=O)O` [drawing 201] yielded an F of 72.4%, an AUC(0-inf) of 40600 ng·h/mL and a Cmax of 1870 ng/mL.

Regarding `Cc1cc(/C=C/c2nccc(-c3ccccc3)c2C#N)c(Cl)cc1CN1CCCC[C@H]1C(=O)O` [reference compound], in data set [1], the F came to 74.1%, the AUC(0-inf) is 8580 ng·h/mL and the concentration peaked (Cmax) at 1260 ng/mL.

In data set [1], `Cc1cc(/C=C/c2cccc(-c3ccccc3)c2C#N)c(Cl)cc1CN1CCCC[C@H]1C(=O)O` [drawing 205] came in with an F of 80.6%, an AUC(0-inf) of 16800 ng·h/mL and a maximum concentration (Cmax) of 2130 ng/mL.

As for `COc1cc(/C=C/c2cccc(-c3ccccc3)c2C#N)c(C(F)(F)F)cc1CN1CCCC[C@H]1C(=O)O` [drawing 203], in data set [1], the F is reported as 69.7%, the AUC(0-inf) was found to be 7620 ng·h/mL and the Cmax came to 1400 ng/mL.

On to `Cc1cc(CN2CCNC[C@H]2C(=O)O)c(OCCCCC#N)cc1/C=C/c1cccc(-c2ccccc2)c1C#N` [Compound 18, (S,E)-1-(4-(2-(2-Cyano-[1,1′-biphenyl]-3-yl)vinyl)-2-(4-cyanobutoxy)-5-methylbenzyl)piperazine-2-carboxylic acid], for which the IC50 at PD-1/PD-L1 was determined as 22.2 nM.

On to `Cc1cc(CN2CCCC[C@H]2C(=O)O)c(OCc2cc(I)ccn2)cc1/C=C/c1cccc(-c2ccccc2)c1C` [Compound 79, (S,E)-1-(2-((4-Iodo-pyridin-2-yl)methoxy)-5-methyl-4-(2-(2-methyl-[1,1′-biphenyl]-3-yl)vinyl)benzyl)piperidine-2-carboxylic acid], for which, on PD-1/PD-L1, the IC50 stood at 5.31 nM.

On to `COCCOc1cc(/C=C/c2cccc(-c3ccccc3)c2C#N)c(CN[C@@](C)(CO)C(=O)O)cc1Cl` [Compound 35, (S,E)-2-((5-Chloro-2-(2-(2-cyano-[1,1′-biphenyl]-3-yl)vinyl)-4-(2-methoxyethoxy)benzyl)amino)-3-hydroxy-2-methylpropanoic acid], for which, at PD-1/PD-L1, the IC50 is 1150 nM.

Take `[2H]C([2H])([2H])OCc1cc(/C=C/c2cccc(-c3ccccc3)c2C#N)c(C(F)(F)F)cc1CN1CCOC[C@H]1C(=O)O` [Compound 54, (S,E)-4-(4-(2-(2-Cyano-[1,1′-biphenyl]-3-yl)vinyl)-2-((methoxy-d3)methyl)-5-trifluoromethylbenzyl)morpholine-3-carboxylic acid]: on PD-1/PD-L1, the IC50 amounted to 160 nM.

`Cc1cc(CNCC(=O)O)c(OCCCCC#N)cc1/C=C/c1cccc(-c2ccccc2)c1C#N` [Compound 16, (E)-(4-(2-(2-Cyano-[1,1′-biphenyl]-3-yl)vinyl)-2-(4-cyanobutoxy)-5-methylbenzyl)glycine]: the IC50 on PD-1/PD-L1 amounted to 14.5 nM.

Take `N#Cc1c(/C=C/c2cc(CO)c(CN3CCOC[C@H]3C(=O)O)cc2C(F)(F)F)cccc1-c1ccccc1` [Compound 21, (S,E)-4-(4-(2-(2-Cyano-[1,1′-biphenyl]-3-yl)vinyl)-2-hydroxymethyl-5-trifluoromethylbenzyl)morpholine-3-carboxylic acid]: the IC50 on PD-1/PD-L1 came to 57.6 nM.

In data set [1], `COc1cc(/C=C/c2nccc(-c3ccccc3)c2C)c(C(F)(F)F)cc1CN1CCCC[C@H]1C(=O)O` [reference compound] returned an F of 23.6%, an AUC(0-inf) of 2300 ng·h/mL and a Cmax of 673 ng/mL.

Turning to `Cc1ccc(OCCCCC#N)c(CN2CCOC[C@H]2C(=O)O)c1/C=C/c1cccc(-c2ccccc2)c1C#N` [Compound 46, (S,E)-4-(2-(2-(2-Cyano-[1,1′-biphenyl]-3-yl)vinyl)-6-(4-cyanobutoxy)-3-methylbenzyl)morpholine-3-carboxylic acid], the IC50 at PD-1/PD-L1 is greater than 10000 nM.

`Cc1c(/C=C/c2cc(OCc3ccnc(I)c3)c(CN3CCCC[C@H]3C(=O)O)cc2C(F)(F)F)cccc1-c1ccccc1` [Compound 81, (S,E)-1-(2-((2-Iodopyridin-4-yl)methoxy)-4-(2-(2-methyl-[1,1′-biphenyl]-3-yl)vinyl)-5-(trifluoromethyl)benzyl)piperidine-2-carboxylic acid]: the IC50 at PD-1/PD-L1 came to 2.13 nM.

On to `Cc1cc(/C=C/c2cccc(-c3ccccc3)c2C#N)c(Cl)cc1CNCC(=O)O` [Compound 19, (E)-(5-Chloro-4-(2-(2-cyano-[1,1′-biphenyl]-3-yl)vinyl)-2-methylbenzyl)glycine], for which the IC50 at PD-1/PD-L1 came out at 6.2 nM.
